The values that follow come from ChEMBL document CHEMBL5244239, “Penicillin binding protein 2a: An overview and a medicinal chemistry perspective” (Eur J Med Chem, 2020).

Structures are written as SMILES. In brackets after ≈: the same amount, converted by molar mass.

For assay [1], the system named is Staphylococcus aureus. As to the kind of experiment: Antibacterial activity against methicillin resistant Staphylococcus aureus. The assay is classed as functional.
A further assay concerns Enterococcus faecium. As to the kind of experiment: Antibacterial activity against vancomycin-resistant Enterococcus faecium. The assay is classed as functional.
The subject of assay [2] is Staphylococcus aureus. Kind of assay: Antibacterial activity against methicillin resistant Staphylococcus aureus ATCC 43300. The assay is classed as functional.
The subject of assay [3] is Staphylococcus aureus. As to the kind of experiment: Antibacterial activity against methicillin resistant Staphylococcus aureus PL 1. The assay is classed as functional.
Assay [4] concerns Staphylococcus aureus. As to the kind of experiment: Potentiation of oxacillin against methicillin resistant Staphylococcus aureus OM481 assessed as fold increase in oxacillin activity. The assay is classed as functional.
The subject of assay [5] is Staphylococcus aureus. As to the kind of experiment: Potentiation of oxacillin against methicillin resistant Staphylococcus aureus OM505 assessed as fold increase in oxacillin activity. The assay is classed as functional.
Assay [6] has as its system Staphylococcus aureus. As to the kind of experiment: Potentiation of oxacillin against methicillin resistant Staphylococcus aureus OM584 assessed as fold increase in oxacillin activity. The assay is classed as functional.
The test system of assay [7] is Staphylococcus aureus. As to the kind of experiment: Potentiation of oxacillin against methicillin resistant Staphylococcus aureus OM623 assessed as fold increase in oxacillin activity. The assay is classed as functional.
Assay [8] deals with T1, MecA (Staphylococcus aureus, UniProt Q7DHH4).
T1 sequence (Q7DHH4 whole entry): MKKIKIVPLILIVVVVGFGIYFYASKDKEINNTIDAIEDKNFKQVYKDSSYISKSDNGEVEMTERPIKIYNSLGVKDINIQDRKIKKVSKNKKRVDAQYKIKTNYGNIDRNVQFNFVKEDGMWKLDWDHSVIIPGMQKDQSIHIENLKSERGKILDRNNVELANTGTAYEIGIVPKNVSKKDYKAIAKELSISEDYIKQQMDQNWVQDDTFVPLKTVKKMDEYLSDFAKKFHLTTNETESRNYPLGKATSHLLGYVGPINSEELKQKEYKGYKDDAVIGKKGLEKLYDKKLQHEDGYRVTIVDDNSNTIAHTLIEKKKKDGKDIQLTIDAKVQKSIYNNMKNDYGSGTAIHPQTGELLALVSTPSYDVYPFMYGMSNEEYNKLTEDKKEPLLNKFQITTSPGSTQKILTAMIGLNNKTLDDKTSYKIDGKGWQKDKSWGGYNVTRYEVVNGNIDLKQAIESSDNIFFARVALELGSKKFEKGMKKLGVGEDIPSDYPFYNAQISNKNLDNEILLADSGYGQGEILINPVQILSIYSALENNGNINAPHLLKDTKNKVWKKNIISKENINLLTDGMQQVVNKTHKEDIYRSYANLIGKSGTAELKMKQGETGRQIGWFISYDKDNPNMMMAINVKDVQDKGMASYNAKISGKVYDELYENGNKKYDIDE
As to the kind of experiment: Binding affinity to Staphylococcus aureus ATCC 43300 PBP2a.

The target in assay [9] is T2, Penicillin-binding protein 2x (Streptococcus pneumoniae serotype 4 (strain ATCC BAA-334 / TIGR4), UniProt P14677).
T2 sequence (P14677 whole entry): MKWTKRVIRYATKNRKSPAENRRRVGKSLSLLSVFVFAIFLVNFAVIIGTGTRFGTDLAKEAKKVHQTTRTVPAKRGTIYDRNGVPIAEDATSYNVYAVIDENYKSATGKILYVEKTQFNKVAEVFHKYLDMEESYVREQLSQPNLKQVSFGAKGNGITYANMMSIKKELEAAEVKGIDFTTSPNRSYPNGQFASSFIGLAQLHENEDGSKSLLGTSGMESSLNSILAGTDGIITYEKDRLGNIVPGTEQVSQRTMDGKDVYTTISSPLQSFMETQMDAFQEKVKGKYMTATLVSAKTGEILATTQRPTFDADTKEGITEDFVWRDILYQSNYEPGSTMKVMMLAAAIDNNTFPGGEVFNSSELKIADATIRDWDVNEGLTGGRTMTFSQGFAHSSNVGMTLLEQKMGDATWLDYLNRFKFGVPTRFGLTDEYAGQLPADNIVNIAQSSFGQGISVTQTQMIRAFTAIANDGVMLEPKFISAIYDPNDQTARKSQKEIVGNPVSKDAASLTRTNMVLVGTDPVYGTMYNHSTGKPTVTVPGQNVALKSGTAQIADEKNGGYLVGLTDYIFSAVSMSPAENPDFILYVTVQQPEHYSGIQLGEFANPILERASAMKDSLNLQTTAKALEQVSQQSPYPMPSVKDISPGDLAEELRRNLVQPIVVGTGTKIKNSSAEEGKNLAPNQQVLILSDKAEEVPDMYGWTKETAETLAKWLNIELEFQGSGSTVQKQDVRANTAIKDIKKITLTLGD
Kind of assay: Binding affinity to Streptococcus pneumoniae PBP2x.

For assay [10], the system named is Staphylococcus aureus. As to the kind of experiment: Antibacterial activity against methicillin resistant Staphylococcus aureus mp 1. The assay is classed as functional.
The target in assay [11] is T1, MecA. Kind of assay: Displacement of [3H]-penicillin from Staphylococcus aureus PBP2a. A general note: Displacement assays read how much labelled ligand stays bound in the presence of the test substance.
For assay [12], the system named is Staphylococcus aureus. Kind of assay: Antibacterial activity against methicillin sensitive Staphylococcus aureus ATCC 29213. The assay is classed as functional.

`Nc1ccc(-c2nc(-c3ccc(Oc4ccc(C(F)(F)F)cc4)cc3)no2)cc1`: the MIC with Staphylococcus aureus [1] and in the assay with Enterococcus faecium was 1 µg/mL (≈ 2.52 µM) throughout.

Regarding `C[C@@H](NC(=O)c1c(F)cccc1-c1ccccc1)B(O)O`, the MIC in the assay on Staphylococcus aureus [2] and with Staphylococcus aureus [3] was 32 µg/mL (≈ 111 µM) each time.

Consider `Oc1ccc(-c2nc(-c3ccc(Oc4ccccc4)cc3)no2)cc1`, for which the MIC against Staphylococcus aureus [1] and against Enterococcus faecium was 1 µg/mL (≈ 3.03 µM) throughout.

In the case of `Nc1nc(/C(=N/O)C(=O)N[C@@H]2C(=O)N3C(C(=O)O)=C(/C=C4\CCN([C@@H]5CCNC5)C4=O)CS[C@H]23)ns1` [CEFTOBIPROLE], the MIC (as a rule, the lowest concentration that inhibits growth of the organism) in the assay with Staphylococcus aureus [1] worked out at 0.5 µg/mL (≈ 0.935 µM).

For the molecule `O=C(O[C@H]1[C@@H]2OC(=O)c3cc(O)c(O)c(O)c3-c3c(cc(O)c(O)c3O)C(=O)OC[C@H]2OC(O)[C@@H]1OC(=O)c1cc(O)c(O)c(O)c1)c1cc(O)c(O)c(O)c1` (stereo partly drawn), the “fold change (FC)” value in the assay with Staphylococcus aureus [4], in the assay with Staphylococcus aureus [5], in the assay on Staphylococcus aureus [6] and with Staphylococcus aureus [7] was 100 each time.

Regarding `CCCCOc1ccc2cc(S(=O)(=O)Nc3ccccc3C(=O)O)ccc2c1`, the figures for the IC50 (on MecA [8]; in [9]) were 97 µM and 391 µM, respectively. Besides, the MIC against Staphylococcus aureus [2] and against Staphylococcus aureus [10] was 32 µg/mL (≈ 80.1 µM) in each case.

The molecule `C[C@@H](O)[C@H]1C(=O)N2C(C(=O)[O-])=C(c3ccc4c(c3)-c3ccc(C[n+]5ccn(C)c5)cc3C4=O)[C@H](C)[C@H]12` gave an MIC against Staphylococcus aureus [1] of 16 µg/mL (≈ 33.1 µM). Also, the IC50 (usually the concentration that inhibits the measured activity by half) at MecA [11] was 2.48 µM.

For `O=c1c2ccccc2nc(/C=C/c2ccc([N+](=O)[O-])cc2)n1-c1cccc(O)c1`, the MIC against Staphylococcus aureus [12] is 2 µg/mL (≈ 5.19 µM).

Take `Oc1ccc(-c2nc(-c3ccc(Oc4ccc(C(F)(F)F)cc4)cc3)no2)cc1`: the MIC in the assay on Staphylococcus aureus [1] and against Enterococcus faecium was 1 µg/mL (≈ 2.51 µM) in each case.

`CCCOc1cccc(C(=O)Nc2ccccc2C(=O)O)c1` gave a 50% inhibitory concentration (IC50) on MecA [8] of 910 µM. The MIC against Staphylococcus aureus [2] and in the assay on Staphylococcus aureus [10] was 512 µg/mL (≈ 1710 µM) each time.
